Reference: patent US6960597B2, “Aza-bridged-bicyclic amino acid derivatives as α4 integrin antagonists” (Orth-McNeil Pharmaceutical, Inc., priority 2000, dated 2005)
Read-outs that look alike come from different tables or passages of the source.

Tests used:
α4β1 integrin receptor = target: T1, α4β1 integrin receptor (Homo sapiens, UniProt P05556+P13612); experiment: Ramos Cell Adhesion Assay (α4β1 Mediated Adhesion/VCAM-1); type: cell-based
T1 construct: Ramos Cell Adhesion Assay (α4β1 Mediated Adhesion/VCAM-1); endogenous in cells; host or cells: Ramos cells
Description: Ramos Cell Adhesion Assay (α4β1 Mediated Adhesion/VCAM-1)
(§1) Immulon 96 well plates (Dynex) were coated with 100 μL recombinant hVCAM-1 at 4.0 μg/mL in 0.05 M NaCO3 buffer pH 9.0 overnight at 4° C. (R&D Systems). Plates were washed 3 times in PBS with 1% BSA and blocked for 1 h @ room temperature in this buffer. PBS was removed and compounds to be tested (50 μL) were added at 2× concentration. Ramos cells, (50 μL at 2×10^6/mL) labeled with 5 μM Calcein AM (Molecular Probes) for 1 h at 37° C., were added to each well and allowed to adhere for 1 h at room temperature. Plates were washed 3× in PBS+1% BSA and cells were lysed for 15 minutes in 100 μL of 1 M Tris pH 8.0 with 1% SDS. The plate was read at 485 nm excitation and 530 nm emission.

human α4β7 = target: T2, human α4β7 (Homo sapiens, UniProt P13612+P26010); experiment: α4β7-K562 Cell Adhesion Assay (α4β7 Mediated Adhesion/VCAM-1); type: cell-based
T2 construct: expressed in transfected cells
T2 sequence (P13612 34-1032): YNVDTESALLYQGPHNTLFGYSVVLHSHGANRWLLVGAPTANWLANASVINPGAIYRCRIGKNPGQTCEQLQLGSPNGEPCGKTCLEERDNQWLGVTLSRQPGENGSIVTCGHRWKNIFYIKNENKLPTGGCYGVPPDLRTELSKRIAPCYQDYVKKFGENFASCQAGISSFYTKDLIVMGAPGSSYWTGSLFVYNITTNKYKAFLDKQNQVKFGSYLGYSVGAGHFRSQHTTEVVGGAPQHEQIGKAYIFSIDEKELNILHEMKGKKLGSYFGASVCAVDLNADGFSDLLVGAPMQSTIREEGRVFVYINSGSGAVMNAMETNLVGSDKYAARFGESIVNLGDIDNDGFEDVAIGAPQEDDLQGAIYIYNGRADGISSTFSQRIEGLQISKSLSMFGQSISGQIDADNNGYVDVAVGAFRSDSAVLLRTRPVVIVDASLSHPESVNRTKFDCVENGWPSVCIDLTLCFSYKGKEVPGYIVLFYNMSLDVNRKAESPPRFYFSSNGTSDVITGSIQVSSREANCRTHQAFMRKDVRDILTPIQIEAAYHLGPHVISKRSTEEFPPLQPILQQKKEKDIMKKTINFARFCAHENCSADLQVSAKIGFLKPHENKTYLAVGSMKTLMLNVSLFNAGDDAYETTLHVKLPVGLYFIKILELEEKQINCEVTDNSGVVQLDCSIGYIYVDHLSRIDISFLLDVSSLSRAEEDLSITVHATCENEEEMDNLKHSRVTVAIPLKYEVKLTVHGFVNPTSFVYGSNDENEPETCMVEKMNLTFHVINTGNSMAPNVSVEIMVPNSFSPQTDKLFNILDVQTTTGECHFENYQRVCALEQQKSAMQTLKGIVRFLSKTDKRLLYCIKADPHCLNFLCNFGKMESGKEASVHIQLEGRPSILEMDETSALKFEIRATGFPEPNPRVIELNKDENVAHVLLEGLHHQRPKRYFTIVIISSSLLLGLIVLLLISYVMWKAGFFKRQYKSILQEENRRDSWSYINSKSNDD
T2 sequence (P26010 20-798): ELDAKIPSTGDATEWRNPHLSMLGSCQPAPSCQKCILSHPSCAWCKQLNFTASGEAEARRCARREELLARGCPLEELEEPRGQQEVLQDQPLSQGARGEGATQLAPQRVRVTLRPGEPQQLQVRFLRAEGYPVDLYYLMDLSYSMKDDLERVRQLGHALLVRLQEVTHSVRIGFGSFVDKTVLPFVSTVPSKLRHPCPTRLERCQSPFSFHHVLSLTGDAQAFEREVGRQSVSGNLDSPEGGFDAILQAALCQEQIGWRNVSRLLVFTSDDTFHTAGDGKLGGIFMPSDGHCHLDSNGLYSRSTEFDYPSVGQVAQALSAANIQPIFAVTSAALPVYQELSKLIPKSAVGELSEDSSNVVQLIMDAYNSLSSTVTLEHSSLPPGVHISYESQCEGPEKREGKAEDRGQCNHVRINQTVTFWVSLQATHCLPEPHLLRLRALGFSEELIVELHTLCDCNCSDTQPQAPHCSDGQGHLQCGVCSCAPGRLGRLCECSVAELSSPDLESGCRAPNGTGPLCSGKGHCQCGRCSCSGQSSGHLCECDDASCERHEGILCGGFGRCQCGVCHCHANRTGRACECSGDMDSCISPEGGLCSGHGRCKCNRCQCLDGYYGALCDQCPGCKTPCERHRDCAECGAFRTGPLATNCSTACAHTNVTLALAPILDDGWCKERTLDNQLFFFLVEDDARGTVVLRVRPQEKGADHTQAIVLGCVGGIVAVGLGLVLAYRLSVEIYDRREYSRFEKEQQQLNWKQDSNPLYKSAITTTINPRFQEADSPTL
Description: α4β7-K562 Cell Adhesion Assay (α4β7 Mediated Adhesion/VCAM-1)
as §1, with “A stable cell line of K562 cells expressing human α4β7,” for “Ramos cells,”

[1] = Table III, read-out: Inhibition of Binding of Ramos Cells to Immobilized VCAM-1 IC50
[2] = Table III, μM, read-out: Inhibition of Binding of Ramos Cells to Immobilized VCAM-1 IC50
[3] = Table IV, μM, read-out: Inhibition of Binding of K562 Cells to Immobilized VCAM-1 IC50
[4] = Table I, racemic mixtures and resolved (S,S) and (R,S) diastereomers, read-out: Antagonist IC50 Activity α4β1
[5] = Table I, racemic mixtures and resolved (S,S) and (R,S) diastereomers, read-out: Antagonist IC50 Activity α4β7
[6] = Table IV, read-out: Inhibition of Binding of K562 Cells to Immobilized VCAM-1 IC50

T1 sequence (P05556 21-798, one chain of several): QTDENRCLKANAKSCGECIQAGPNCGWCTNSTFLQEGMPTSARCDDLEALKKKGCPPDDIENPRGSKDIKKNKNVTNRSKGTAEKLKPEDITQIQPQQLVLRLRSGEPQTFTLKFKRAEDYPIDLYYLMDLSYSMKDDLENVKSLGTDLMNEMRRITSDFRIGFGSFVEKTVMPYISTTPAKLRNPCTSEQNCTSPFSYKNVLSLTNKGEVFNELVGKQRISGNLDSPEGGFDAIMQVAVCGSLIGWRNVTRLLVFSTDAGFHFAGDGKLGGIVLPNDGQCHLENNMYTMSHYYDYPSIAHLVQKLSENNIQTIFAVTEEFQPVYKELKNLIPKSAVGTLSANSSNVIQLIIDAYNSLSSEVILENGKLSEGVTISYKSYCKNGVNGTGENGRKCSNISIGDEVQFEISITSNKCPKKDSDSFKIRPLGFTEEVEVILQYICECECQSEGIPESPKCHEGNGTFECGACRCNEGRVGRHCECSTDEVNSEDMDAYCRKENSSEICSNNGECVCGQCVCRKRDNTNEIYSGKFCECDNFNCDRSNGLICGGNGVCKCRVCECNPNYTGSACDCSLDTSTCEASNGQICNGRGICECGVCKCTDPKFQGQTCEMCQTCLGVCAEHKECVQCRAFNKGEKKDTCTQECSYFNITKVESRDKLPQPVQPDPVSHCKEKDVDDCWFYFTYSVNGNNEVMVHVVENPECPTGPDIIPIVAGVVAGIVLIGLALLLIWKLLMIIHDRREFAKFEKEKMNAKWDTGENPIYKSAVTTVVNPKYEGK

| SMILES | IC50 (α4β1 integrin receptor; [1]) | IC50 (α4β1 integrin receptor; [2]) | IC50 (human α4β7; [3]) | further results |
| --- | --- | --- | --- | --- |
| O=C(Nc1ccc(C[C@H](NC(=O)C2C3CCC(CC3)N2S(=O)(=O)c2ccccc2)C(=O)O)cc1)c1c(F)c(F)cc(F)c1F (stereo partly drawn) [Cpd 44, 4-[(2,3,5,6-tetrafluorobenzoyl)amino]-N-[[2-(phenylsulfonyl)-2-azabicyclo[2.2.2]oct-3-yl]carbonyl]-L-phenylalanine] | 0.309 µM |  |  |  |
| CN(C(=O)C1C2CCC(CC2)N1S(=O)(=O)c1ccccc1)[C@@H](Cc1ccc(OCc2c(Cl)cccc2Cl)cc1)C(=O)O (stereo partly shown) [Cpd 38, O-[(2,6-dichlorophenyl)methyl]-methyl-N-[[2-(phenylsulfonyl)-2-azabicyclo[2.2.2]oct-3-yl]carbonyl]tyrosine] |  | > 5 µM | > 10 µM |  |
| Cc1ccc(S(=O)(=O)N2C3CCC(CC3)C2C(=O)N[C@@H](Cc2ccc(-c3ccccc3)cc2)C(=O)O)cc1 (stereo partly drawn) [Cpd 33, 4-phenyl-N-[[2-[(4-methylphenyl)sulfonyl]-2-azabicyclo[2.2.2]oct-3-yl]carbonyl]l-L-phenylalanine] |  | > 5 µM | > 10 µM |  |
| COc1cccc(OC)c1C(=O)Nc1ccc(C[C@H](NC(=O)[C@@H]2C3CCC(C3)N2S(=O)(=O)c2ccccc2)C(=O)O)cc1 (stereo partly drawn) [Cpd 19a, 4-[(2,6-dimethoxybenzoyl)amino]-N-[[(3S)-2-(phenylsulfonyl)-2-azabicyclo[2.2.1]hept-3-yl]carbonyl]-L-phenylalanine] | 0.3 µM |  |  | IC50 (α4β1 integrin receptor; [4]): 0.3 µM; IC50 (human α4β7; [5]): 3.82 µM |
| CC(C)(C)C(=O)Nc1ccc(C[C@H](NC(=O)[C@@H]2C3CCC(CC3)N2S(=O)(=O)c2ccccc2)C(=O)O)cc1 [Cpd 64, 4-[(2,2-dimethyl-1-oxopropyl)amino]-N-[[(3S)-2-(phenylsulfonyl)-2-azabicyclo[2.2.2]oct-3-yl]carbonyl]-L-phenylalanine] | 0.393 µM |  | > 10 µM |  |
| Cc1ccc(S(=O)(=O)N2C3CCC(CC3)C2C(=O)N[C@@H](Cc2ccc(-n3cccc3)cc2)C(=O)O)cc1 (stereo partly drawn) [Cpd 32, 4-(1H-pyrrol-1-yl)-N-[[2-[(4-methylphenyl)sulfonyl]-2-azabicyclo[2.2.2]oct-3-yl]carbonyl]-L-phenylalanine] |  | > 5 µM | > 10 µM |  |
| Cc1ccc(S(=O)(=O)N2C3CCC(CC3)C2C(=O)N[C@@H](Cc2ccc(NC(=O)c3ccccc3Br)cc2)C(=O)O)cc1 (stereo partly drawn) [Cpd 14, 4-[(2-bromobenzoyl)amino]-N-[[2-[(4-methylphenyl)sulfonyl]-2-azabicyclo[2.2.2]oct-3-yl]carbonyl]-L-phenylalanine] | 0.16 µM |  |  | IC50 (human α4β7; [6]): 0.913 µM |
| Cc1ccc(S(=O)(=O)N2C3CCC(CC3)C2C(=O)N[C@@H](Cc2ccc(NC(=O)c3ccccc3Cl)cc2)C(=O)O)cc1 (stereo partly drawn) [Cpd 10, 4-[(2-chlorobenzoyl)amino]-N-[[2-[(4-methylphenyl)sulfonyl]-2-azabicyclo[2.2.2]oct-3-yl]carbonyl]-L-phenylalanine] | 0.145 µM |  |  | IC50 (human α4β7; [6]): 4.41 µM |
| O=C(Nc1ccc(C[C@H](NC(=O)C2C3CCC(CC3)N2S(=O)(=O)c2ccccc2)C(=O)O)cc1)c1ccncc1 (stereo partly drawn) [Cpd 50, 4-[(4-pyridinylcarbonyl)amino]-N-[[2-(phenylsulfonyl)-2-azabicyclo[2.2.2]oct-3-yl]carbonyl]-L-phenylalanine] | 0.055 µM |  |  | IC50 (human α4β7; [6]): 0.81 µM |
| Cc1ccc(S(=O)(=O)N2C3CCC(CC3)C2C(=O)N[C@@H](Cc2cccc(NC(=O)c3c(Cl)cccc3Cl)c2)C(=O)O)cc1 (stereo partly shown) [Cpd 37, 3-[(2,6-dichlorobenzoyl)amino]-N-[[2-[(4-methylphenyl)sulfonyl]-2-azabicyclo[2.2.2]oct-3-yl]carbonyl]phenylalanine] |  | > 5 µM | > 10 µM |  |
| O=C(Nc1ccc(C[C@H](NC(=O)C2C3CCC(CC3)N2S(=O)(=O)c2ccccc2)C(=O)O)cc1)Nc1c(Cl)cccc1Cl (stereo partly drawn) [Cpd 28, 4-[[[(2,6-dichlorophenyl)amino]carbonyl]amino]-N-[[2-(phenylsulfonyl)-2-azabicyclo[2.2.2]oct-3-yl]carbonyl]-L-phenylalanine] | 1.6 µM |  | > 5 µM |  |
| O=C(O)[C@H](Cc1ccc(OCc2c(Cl)cccc2Cl)c(F)c1)NC(=O)[C@@H]1C2CCC(CC2)N1S(=O)(=O)c1ccccc1 [Cpd 62a, O-[(2,6-dichlorophenyl)methyl]-3-fluoro-N-[[(3S)-2-(phenylsulfonyl)-2-azabicyclo[2.2.2]oct-3-yl]carbonyl]-L-tyrosine] |  | > 5 µM | > 10 µM |  |
| O=C(O)c1ccccc1C(=O)Nc1ccc(C[C@H](NC(=O)[C@@H]2C3CCC(CC3)N2S(=O)(=O)c2ccccc2)C(=O)O)cc1 [Cpd 48, 4-[(2-carboxybenzoyl)amino]-N-[[(3S)-2-(phenylsulfonyl)-2-azabicyclo[2.2.2]oct-3-yl]carbonyl]-L-phenylalanine] |  | > 5 µM | > 10 µM |  |
| CN(C)C(=O)Nc1ccc(C[C@H](NC(=O)C2C3CCC(CC3)N2S(=O)(=O)c2ccccc2)C(=O)O)cc1 (stereo partly drawn) [Cpd 61, 4-[[(dimethylamino)carbonyl]amino]-N-[[2-(phenylsulfonyl)-2-azabicyclo[2.2.2]oct-3-yl]carbonyl]-L-phenylalanine] | 0.056 µM |  |  |  |
| CC(C)(C)OC(=O)N1CCC(C(=O)Nc2ccc(C[C@H](NC(=O)[C@@H]3C4CCC(CC4)N3S(=O)(=O)c3ccccc3)C(=O)O)cc2)CC1 [Cpd 53a, 4-[[[1-[(1,1-dimethylethoxy)carbonyl]-4-piperidinyl]carbonyl]amino]-N-[[(3S)-2-(phenylsulfonyl)-2-azabicyclo[2.2.2]oct-3-yl]carbonyl]-L-phenylalanine] | 0.219 µM |  |  | IC50 (α4β1 integrin receptor; [4]): 0.219 µM; IC50 (human α4β7; [5]): 0.693 µM |
| O=C(Nc1ccc(C[C@H](NC(=O)[C@@H]2C3CCC(CC3)N2S(=O)(=O)c2ccccc2)C(=O)O)cc1)c1c(Cl)cncc1Cl [Cpd 60, 4-[[(3,5-dichloro-4-pyridinyl)carbonyl]amino]-N-[[(3S)-2-(phenylsulfonyl)-2-azabicyclo[2.2.2]oct-3-yl]carbonyl]-L-phenylalanine] | 0.009 µM |  |  |  |
